Biological target: human galectin 3 (Homo sapiens, UniProt P17931)
Assay: SPR analysis of binding of glycan ligands to immobilized human Gal-3
Conditions: for Relative affinity: calculated relative to the free lactose

Sequence of human galectin 3 (P17931 whole entry): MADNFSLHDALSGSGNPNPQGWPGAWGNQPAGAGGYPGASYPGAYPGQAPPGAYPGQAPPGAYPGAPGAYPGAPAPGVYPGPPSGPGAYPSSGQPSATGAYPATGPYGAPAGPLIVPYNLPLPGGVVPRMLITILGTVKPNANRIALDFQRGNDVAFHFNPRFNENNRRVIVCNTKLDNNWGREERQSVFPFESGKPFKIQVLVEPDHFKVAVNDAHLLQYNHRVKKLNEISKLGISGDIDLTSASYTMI

## [N-]=[N+]=NCCOCCOCCO[C@@H]1O[C@H](CO)[C@@H](O[C@@H]2O[C@H](CO)[C@H](O)[C@H](O)[C@H]2O)[C@H](O)[C@H]1O [mono Lac (3)]
  Relative affinity: < 1.47

## CC(=O)N[C@H]1[C@@H](OCCOCCOCCN=[N+]=[N-])O[C@H](CO)[C@H](O)[C@@H]1O[C@@H]1O[C@H](CO)[C@H](O)[C@H](O)[C@H]1O [mono TFD (2), 2-(2-(2-Azido)ethoxy)ethyl-2-actamido-2-desoxy-3-O-[-β-D-galactopyranosyl]-α-D-galactopyranoside]
  Relative affinity: < 1.47

## CC(=O)N[C@H]1[C@@H](OCCOCCOCCN=[N+]=[N-])O[C@H](CO)[C@H](O)[C@@H]1O [mono Tn (1), 2-(2-(2-Azido)ethoxy)ethyl-2-actamido-2-desoxy-α-D-gal-actopyranoside]
  Relative affinity: < 1.47

## β-Cyclodextrin-GalNAc [CD-Tn (16)]
SPR, Gal-3 immobilized on CM5 chip, ligand as analyte, 25 °C
  EC50: 1370 ± 390 nM
SPR, per glycan ligand
  enhanced relative affinity (per glycan ligand) in comparison with free lactose: 153 fold
Calculated for each sugar unit on cyclodextrin, relative to free lactose
  Relative affinity per unit: 153
  Relative affinity: 1070

From publication PMC10349921 (Bioorganic & medicinal chemistry, 2022)
